The record followed here is patent US10759826B2, “15β-substituted estrone derivatives as selective inhibitors of 17β-hydroxysteroid-dehydrogenases, method of preparation and use thereof” (USTAV ORGANICKE CHEMIE A BIOCHEMIE AV CR, V.V.I., priority 2016, dated 2020).

The target in one experiment is T1, human 17βHSD type 1 (Homo sapiens, UniProt P14061).
T1 construct: made in house; expressing system suspended in buffer, not purified
T1 sequence (P14061 1-328): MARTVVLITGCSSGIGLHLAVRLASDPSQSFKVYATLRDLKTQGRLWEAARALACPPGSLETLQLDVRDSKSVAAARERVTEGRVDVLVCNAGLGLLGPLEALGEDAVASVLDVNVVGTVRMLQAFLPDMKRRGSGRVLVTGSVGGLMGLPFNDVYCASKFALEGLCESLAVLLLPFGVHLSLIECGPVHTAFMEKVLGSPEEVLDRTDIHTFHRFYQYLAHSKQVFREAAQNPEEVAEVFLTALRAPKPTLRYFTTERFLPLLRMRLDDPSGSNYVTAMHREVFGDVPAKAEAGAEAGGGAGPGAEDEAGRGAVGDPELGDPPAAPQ
Nature of the experiment: Inhibition of recombinant 17βHSD type 1, tritium-labeled substrate conversion. In kind it is biochemical. The following applies: for inhibition at 0.1 µM: 0.1 μmol · l^−1 test substance; for inhibition at 0.1 µM / inhibition at 1 µM: read-out: % of inhibition of human 17βHSD1; for inhibition at 1 µM: 1 μmol · l^−1 test substance.

For experiment [1], the target named is T2, estrogen receptor α (ERα) (Homo sapiens, UniProt P03372).
T2 construct: expressed in transfected cells
T2 sequence (P03372 1-595): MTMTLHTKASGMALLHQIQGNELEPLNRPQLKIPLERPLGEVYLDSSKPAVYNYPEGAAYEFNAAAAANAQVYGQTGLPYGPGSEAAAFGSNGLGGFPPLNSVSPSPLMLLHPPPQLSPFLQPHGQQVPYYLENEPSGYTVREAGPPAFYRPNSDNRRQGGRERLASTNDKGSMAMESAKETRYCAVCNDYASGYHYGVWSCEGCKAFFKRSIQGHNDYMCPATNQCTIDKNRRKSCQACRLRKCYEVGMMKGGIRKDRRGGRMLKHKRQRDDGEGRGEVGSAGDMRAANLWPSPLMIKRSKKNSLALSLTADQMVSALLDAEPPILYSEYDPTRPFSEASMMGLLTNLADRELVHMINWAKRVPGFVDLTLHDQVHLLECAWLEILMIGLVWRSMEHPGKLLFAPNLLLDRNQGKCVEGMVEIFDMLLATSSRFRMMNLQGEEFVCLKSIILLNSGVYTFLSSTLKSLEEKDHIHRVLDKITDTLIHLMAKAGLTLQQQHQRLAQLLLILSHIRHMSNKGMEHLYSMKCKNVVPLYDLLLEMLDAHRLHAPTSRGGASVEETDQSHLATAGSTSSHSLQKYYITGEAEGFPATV
Nature of the experiment: ERα luciferase reporter assay in U2OS cells. In kind it is cell-based. The following applies: for Emax: U2OS, read-out: efficacy of ERα activation, % of the maximal effect produced by E2; for EC50: agonist mode, U2OS reporter, 24 h; for IC50: antagonist mode, 1 nmol·l^−1 E2.

The subject of a further experiment is U2OS cells. Kind of experiment: Cell viability (ATP) of unmodified U2OS cells, parallel to reporter assay. In kind it is cell-based, human. The following applies: Homo sapiens. The protocol: To separate the antagonist activity of test compounds from the cytotoxic effect on U2OS cells (cell line derived from osteosarcoma), an experiment for determination of cell viability was performed in parallel with the reporter assay. Original, genetically unmodified U2OS cells were grown under the same conditions as the reporter cells. These cells were further treated and incubated with the compounds in a completely identical manner and for the same time as cells in the reporter assay. At the end of the experiment, the amount of ATP was determined using BriteLite luciferase homogeneous assay as a measure of cell viability. The data were then processed together with data from the reporter assays.

In a further experiment the test system is MDA-MB-231. Kind of experiment: 7 day proliferation assay, MDA-MB-231. In kind it is cell-based. The following applies: 1 μmol·l^−1, 7 days. As to the method:
(§1) In this study, T47D cells were propagated in RPMI 1640 medium supplemented with 10% fetal bovine serum, 2 mmol^·l^−1 glutaMAX (Thermo Fisher Scientific, MA, USA), and penicillin/streptomycin (Thermo Fisher Scientific, Waltham, USA) and incubated in a 5% CO2-humidified atmosphere at 37° C. to the amount needed for the experiment. Two days prior to testing of compounds, growth medium was changed to medium without phenol red, supplemented with 2 mmol^·l^−1 Glutamax and 4% FBS depleted of lipophilic components (including the endogenous estrogenic substances) (Hyclone, GE Healthcare Life Sciences, USA). Two days after the medium replacement, the cells were harvested, counted and resuspended in a medium. Cells were dispensed with liquid dispenser Multidrop (Thermo Fisher Scientific, Waltham, USA), to the cell culture treated, 12-well plates (Corning Inc., NY, USA) at 100 000 cells/well in 1 mL of total media volume. […] After 7 days of cell cultivation with compounds, cells were harvested and counted. […]
(§2) Compounds 9 and 12 were tested in the proliferation assay with cell lines derived from the triple negative breast cancer (MDA-MB-231), AR-negative prostate cancer (PC3, DU145) and ovarian cancer (SK-OV-3, CaoV-3). […] At the end of the treatment, cells were harvested and counted. […]

Another experiment concerns PC3. Nature of the experiment: 7 day proliferation assay, PC3. In kind it is cell-based. The settings on record: 1 μmol·l^−1, 7 days. As to the method:
as §1, §2

In the next experiment the test system is SK-OV-3. Kind of experiment: 7 day proliferation assay, SK-OV-3. In kind it is cell-based. The following applies: 1 μmol·l^−1, 7 days. As to the method:
as §1, §2

In another experiment the test system is CaOV-3. Nature of the experiment: 7 day proliferation assay, CaOV-3. The following applies: 1 μmol·l^−1, 7 days. In kind it is cell-based. The protocol:
as §1, §2

For orientation: inhibition means how much of the control response was suppressed. By EC50 is commonly meant the concentration needed to bring the measured effect to its halfway point. Low values mean higher potency in that assay, high ones lower potency in that assay. A word on the IC50: it is the midpoint of a concentration-inhibition curve.

For `CCOc1ccc(CC[C@@H]2CC(=O)[C@@]3(C)CC[C@@H]4c5ccc(O)cc5CC[C@H]4[C@H]23)cc1` [Compound 12, 15β-(4-Ethoxyphenethyl)-3-hydroxy-estra-1,3,5(10)-trien-17-one], on human 17βHSD type 1, the inhibition at 0.1 µM was 85% and the inhibition at 1 µM turned out to be 88%. Moreover, in experiment [1], the Emax was less than 40%, the EC50 is more than 10 µM and the IC50 was 29 µM. Further, the “ER antagonism in words” value in experiment [1] (testing range 10 μmol·l^−1 to 1 nmol·l^−1) is given as “antagonists of both types of receptors”. The half-maximal inhibitory concentration (IC50) with U2OS cells was more than 100 µM. The “% of survived cells compared to untreated samples, MDA-MB-231” value in the experiment with MDA-MB-231 was 98%. Also, in the experiment on PC3, the “% of survived cells compared to untreated samples, PC3” value came to 98%. Moreover, the “% of survived cells compared to untreated samples, SK-OV-3” value in the experiment with SK-OV-3 came out at 97%. Also, the “% of survived cells compared to untreated samples, CaOV-3” value in the experiment with CaOV-3 worked out at 88%.
As to `COc1ccc(CC[C@@H]2CC(=O)[C@@]3(C)CC[C@@H]4c5ccc(O)cc5CC[C@H]4[C@H]23)cc1` [Compound 9, 3-Hydroxy-15β-(4-methoxyphenethyl)-estra-1,3,5 (10)-trien-17-one], at human 17βHSD type 1, the inhibition at 0.1 µM stood at 91% and the inhibition at 1 µM came out at 100%. Besides, the IC50 on human 17βHSD type 1 (read-out: 17βHSD1 IC50) turned out to be 0.01 µM. Besides, in experiment [1], the Emax is less than 40%; the EC50 is more than 10 µM; the midpoint of inhibition, the IC50, lay at 23.5 µM. Further, in the experiment with U2OS cells, the IC50 was more than 100 µM. Besides, the “% of survived cells compared to untreated samples, MDA-MB-231” value in the experiment with MDA-MB-231 came out at 106%. Besides, the “% of survived cells compared to untreated samples, PC3” value in the experiment with PC3 was determined as 96%. For the same compound, the “% of survived cells compared to untreated samples, SK-OV-3” value with SK-OV-3 was determined as 113%. Also, the “% of survived cells compared to untreated samples, CaOV-3” value with CaOV-3 turned out to be 94%.
